Values of other authors as cited in US9750732B2, “Urinary triaosylceramide (Gb3) as a marker of cardiac disease” (Baylor Research Institute, priority 2009, dated 2017).
Read-outs that look alike come from different tables or passages of the source.

What was measured:
APC: protein S [1] = settings: purified proteins
APC: protein S [2] = settings: exogenously added; in the presence but not absence of APC: protein S
[3] = in multicomponent vesicles containing phosphatidylserine and phosphatidylcholine

Row | Substance | inactivation of factor Va by APC: protein S (APC: protein S [1]; [3]) | inactivation of factor Va by APC: protein S (APC: protein S [1]; glycolipid alone) | clotting times of normal plasma (APC: protein S [2])
1 | lactosylceramide | enhanced | – | –
2 | glycosylceramide [GlcCer] | enhanced | enhanced | dose-dependently prolonged clotting times
3 | globotriaosylceramide [Gb3Cer] | enhanced | – | dose-dependently prolonged clotting times
4 | galactosylceramide | enhanced | – | –
